Measurements published in patent US12655110B2, “Method of producing a crystalline form of sodium 2-[(4S)-8-fluoro-2-[4-(3- methoxyphenyl)piperazin-1-yl]-3-[2-methoxy-5-(trifluoromethyl)phenyl]-4H-quinazoline-4-yl]acetate trihydrate” (A1C246 AG & CO. KG, priority 2020, dated 2026).

Assays:
Assay type in all cases: physicochemical
[1] = Solid form stability in a drying process; conditions: drying process (>60° C.)
Hygroscopicity (DVS) = conditions: for PXRD after DVS experiment (solid form): after hygroscopicity (DVS) experiment
[2] = Thermogravimetric analysis (TGA), decomposition; conditions: heated under nitrogen at 10° C./min from 30° C. to 300° C.
Procedure: Thermogravimetric analysis (TGA): Thermogravimetric analyses were recorded in a Mettler Toledo TGA/SDTA851 with a balance MT1 type. Approximately 3-4 mg of sample were weighed (using a MX5 Mettler Toledo microbalance) into 40 μL aluminium crucibles with a pinhole lid and heated under nitrogen (10 mL/min) at 10° C./min from 30° C. to 300° C. Programs used: Data collection and evaluation with software STARe.

Row | SMILES | Solid form change in a drying process [1] | Hygroscopicity (DVS): water adsorption (Hygroscopicity (DVS); 10-80% RH) | Hygroscopicity (DVS): water adsorption (Hygroscopicity (DVS); 10-90% RH) | PXRD after DVS experiment (solid form) (Hygroscopicity (DVS)) | TGA: decomposition occurs at [2]
1 | CCO.COc1cccc(N2CCN(C3=Nc4c(F)cccc4[C@H](CC(=O)[O-])N3c3cc(C(F)(F)F)ccc3OC)CC2)c1.O.[Na+] [Ethanol/Water Solvate, sodium 2-[(4S)-8-fluoro-2-[4-(3-methoxyphenyl)piperazin-1-yl]-3-[2-methoxy-5-(trifluoromethyl)phenyl]-4H-quinazolin-4-yl]acetate ethanol monohydrate] | The solid turns into the amorphous | 5.3% water adsorption (10-80% RH) | 3.2% water adsorption (10-90% RH) | PXRD after experiment: trihydrate | Decomposition occurs at ca. 250 °C
2 | COc1cccc(N2CCN(C3=Nc4c(F)cccc4[C@H](CC(=O)O)N3c3cc(C(F)(F)F)ccc3OC)CC2)c1 [Trihydrate, sodium 2-[(4S)-8-fluoro-2-[4-(3-methoxyphenyl)piperazin-1-yl]-3-[2-methoxy-5-(trifluoromethyl)phenyl]-4H-quinazolin-4-yl]acetate trihydrate] | The solid turns into the amorphous | 4.1% water adsorption (10-80% RH) | 8.6% water adsorption (10-90% RH) | No PXRD changes after experiment | Decomposition occurs at ca. 250 °C
